For series [1], the target named is mushroom tyrosinase (Agaricus bisporus, UniProt C7FF04). Kind of series: Enzyme kinetic analysis of mushroom tyrosinase (Lineweaver–Burk and Dixon plots). Type of series: biochemical. The settings on record: L-tyrosine substrate 0.5–4 mM. How it is done: Lineweaver–Burk and Dixon plots were used to calculate the inhibition mode and inhibition constant (Ki) against mushroom tyrosinase. Kinetic parameters for various concentrations of the L-tyrosine substrate (0.5–4 mM) and inhibitors (0.4, 2, and 10 µM for compound 1; and 2, 4, and 8 µM for compound 2; and 2.5, 5, and 10 µM for compound 3, respectively) were achieved.
Sequence of mushroom tyrosinase (C7FF04 1-392): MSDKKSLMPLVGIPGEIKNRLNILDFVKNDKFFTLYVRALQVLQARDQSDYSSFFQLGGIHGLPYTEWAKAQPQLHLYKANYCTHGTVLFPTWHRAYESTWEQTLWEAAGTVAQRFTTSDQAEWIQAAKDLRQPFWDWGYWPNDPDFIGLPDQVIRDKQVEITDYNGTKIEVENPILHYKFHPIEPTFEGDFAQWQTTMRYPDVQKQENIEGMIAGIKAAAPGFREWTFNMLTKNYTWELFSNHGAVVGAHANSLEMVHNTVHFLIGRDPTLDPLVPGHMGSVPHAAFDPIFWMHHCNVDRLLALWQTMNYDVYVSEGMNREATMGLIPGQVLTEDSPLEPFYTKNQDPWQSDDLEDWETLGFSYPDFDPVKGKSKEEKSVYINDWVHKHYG
To elucidate the type of enzymatic inhibition, a kinetic analysis was accomplished at several concentrations of the L-tyrosine substrate and inhibitors (1–3), according to the Lineweaver–Burk and Dixon plot methods (Table 3 and Figure 2). […] Furthermore, the Dixon plot is a graphical method [plot of 1/enzyme velocity (1/V) against inhibitor concentration (I)] used to determine the type of enzymatic inhibition and the dissociation or inhibition constant (Kic) for the enzyme-inhibitor complex.
Figure 2 Enzymatic kinetics study of compounds 1–3 against tyrosinase. Lineweaver–Burk plots for the inhibition of mushroom tyrosinase of compounds 1 (A), 2 (B), and 3 (C). Dixon plots for tyrosinase inhibition of compounds 1 (D), 2 (E), and 3 (F) using L-tyrosine as the substrate.

The nature of series [2]: ROS scavenging activity, DCFDA assay, cell-free in vitro. To be noted: SIN-1-induced oxidative stress. How it is done: (§1) ROS scavenging activity was determined according to the method reported by Ali et al. and Lebel and Bondy. Briefly, 2′,7′-Dichlorodihydrofluorescein-diacetate (DCFH-DA) (2.5 mM, Molecular Probes, Eugene, OR, USA) mixed with esterase (1.5 units/mL), was incubated at 37 °C for 30 min and placed on ice in the dark until immediately prior to the study. Phosphate buffer (50 mM) at pH 7.4 was used. To determine intracellular ROS scavenging activity, B16F10 cells (1 × 10^4/well) were seeded in black 96-well plates. After 24 h, the cells were incubated with DCFH-DA (20 µM) and SIN-1 ([…]) for 30 min to induce ROS generation. The fluorescence intensity of oxidized DCFH was measured using a fluorescent microplate reader at excitation and emission wavelengths of 485 and 530 nm, respectively (Tecan, Männedorf, Switzerland). Trolox was used as the positive control.
ROS may regulate melanogenesis in melanoma cells. The principle of the intracellular ROS assay is that DCF-DA spreads through the cell membrane and is enzymatically hydrolyzed to […] by esterase; DCFH then responses with ROS to yield DCF [56]. The ROS scavenging activity of compounds 1–3 was investigated in vitro by using fluorescence probes, (DCF-DA) for ROS. SIN-1 is used as an NO donor [57, 58]. […] . […] The importance of catechol moiety (3,4-dihydroxy group) for ROS scavenging activity was reported in previous studies in the literature.
Figure 5 Reactive oxygen species (ROS) scavenging activity of compound 2. The inhibitory effect of compound 2 on ROS production was evaluated. A DCFDA assay was performed to determine ROS levels. The ROS scavenger trolox was used as the positive control. The scavenging activity of compound 2 on oxidative stress induced by 10 µM SIN-1 was estimated in cell-free in vitro (A). B16F10 cells were pre-treated with compound 2 and trolox for 3 h and further treated with 10 µM SIN-1 (B).

For series [3], the system named is B16F10 cells. As to the kind of experiment: Intracellular ROS levels in SIN-1-treated B16F10 cells. Type of series: cell-based, mouse. To be noted: pre-treated 3 h, then SIN-1. How it is done:
as §1
ROS may regulate melanogenesis in melanoma cells. The principle of the intracellular ROS assay is that DCF-DA spreads through the cell membrane and is enzymatically hydrolyzed to […] by esterase; DCFH then responses with ROS to yield DCF [56]. The ROS scavenging activity of compounds 1–3 was investigated in vitro by using fluorescence probes, (DCF-DA) for ROS. SIN-1 is used as an NO donor [57, 58]. […]
Figure 5 Reactive oxygen species (ROS) scavenging activity of compound 2. The inhibitory effect of compound 2 on ROS production was evaluated. […]

Series [4] relates to tyrosinase, p-CREB, p-PKA, MITF, p-JNK, p-ERK, p-p38. Kind of series: Western blot analysis of melanogenic signaling proteins in α-MSH- and IBMX-induced B16F10 cells. Type of series: cell-based, mouse. How it is done: Lysed samples were boiled for 10 min with gel-loading buffer (0.125 M Tris-HCl, pH 6.8, 4% SDS, 10% 2-mercaptoethanol and 0.2% bromophenol blue) at a volume ratio of 1:1. Total protein equivalents were separated with SDS-PAGE using 9–10% acrylamide gels and then transferred onto polyvinylidene fluoride membranes (Millipore, Burlington, MA, USA) at 25 V for 10 min in a semi-dry transfer system (Bio-Rad Laboratories, Hercules, CA, USA). The membranes were immediately placed in blocking buffer (5% non-fat milk) in 10 mM Tris (pH 7.5), 100 mM NaCl, and 0.1% Tween-20. The blots were blocked at room temperature for 1 h. The membranes were incubated with appropriate specific primary antibodies at 4 °C overnight and then treated with horseradish peroxidase-conjugated anti-mouse, anti-rabbit or anti-goat antibodies (1:5000) at 25 °C for 1 h (Santa Cruz Biotechnology, Dallas, TX, USA). Protein bands were visualized using the SuperSignal® West Pico Chemiluminescent Substrate kit (Advansta, San Jose, CA, USA) and Davinch-Chemi^TM (Davinch-K, Seoul, Korea).
It is important to determine whether the inhibition of melanin synthesis by compound 2 is related to melanogenesis signaling and gene expression. […] MITF, a leucine zipper transcription factor, activates the expression of multiple genes encoding enzymes involved in the conversion of tyrosine into melanin, resulting in increased levels of these melanin-producing proteins. […] The skin is site of oxidative stress due to exposure to daylight and environmental oxidizing pollutants. It is known that ROS stimulates α-MSH- and IBMX-induced production in melanoma cells leading to melanogenesis by upregulating MITF, a transcription factor that induces tyrosinase gene expression. […] However, the levels of phosphorylated p38 were not affected by treatment with compound 2. In our study, both p-JNK and p-ERK were decreased by compound 2.
Figure 7 Effects of compound 2 on melanogenic proteins and mRNA levels in α-MSH- and IBMX-induced B16F10 cells. […] The expression levels of tyrosinase, p-CREB, p-PKA, p-JNK, p-ERK, p-p38, and β-actin were determined with Western blotting in the cytosolic fraction. β-actin was used as the loading control (A,B,D,E). The expression levels of MITF and TFIIB were determined with Western blotting in the nuclear fraction. TFIIB was used as the loading control (C). Relative mRNA levels of the melanogenic genes MITF, Tyrosinase, Trp1, and Trp2 in the cells were quantified using real-time qPCR and normalized to the GAPDH mRNA level (F).

Series [5] has as its system MITF, tyrosinase, TRP1, TRP2 mRNA. As to the kind of experiment: Real-time qPCR of melanogenic genes in α-MSH- and IBMX-induced B16F10 cells. Type of series: cell-based, mouse. To be noted: normalized to GAPDH. How it is done:
RNA from cell samples was purified using the RiboEx Total RNA solution (GeneAll Biotechnology, Seoul, Korea) according to the manufacturer’s instructions. Total RNA (2 µg) treated with ribonuclease (RNase) free deoxyribonuclease (DNase) was reverse-transcribed using Hyperscript^TM One-Step RT-PCR (GeneAll Biotechnology, Seoul, Korea). Real-time qPCR was performed using the SensiFAST^TM SYBR® No-ROX dye (Bioline, London, UK.) and a CFX Connect System (Bio-Rad Laboratories, Hercules, CA, USA). Relative gene expression was calculated with the standard curve method using GAPDH as the internal control. Ct values were obtained with qPCR. Three independent tests were performed.
The effects of compound 2 on the expression of mRNA melanogenic factors were evaluated in α-MSH- and IBMX-induced B16F10 cells. […] The mRNA levels of tyrosinase, TRP1, TRP2, and MITF were quantified with real-time qPCR (Figure 7F).
Figure 7 Effects of compound 2 on melanogenic proteins and mRNA levels in α-MSH- and IBMX-induced B16F10 cells. […] The expression levels of tyrosinase, p-CREB, p-PKA, p-JNK, p-ERK, p-p38, and β-actin were determined with Western blotting in the cytosolic fraction. β-actin was used as the loading control (A,B,D,E). The expression levels of MITF and TFIIB were determined with Western blotting in the nuclear fraction. […]

For series [6], the system named is B16F10 cells. Kind of series: Melanin contents in α-MSH and IBMX-induced B16F10 cells. To be noted: α-MSH and IBMX 48 h, 5, 10 and 20 µM.
Description: All results were standardized to the total protein concentration of the cell lysates using the bicinchoninic acid (BCA) reagent (Thermo Fisher Scientific, Waltham, MA, USA).
In series [7] the test system is B16F10 cells. Kind of series: Cell viability, EZ-Cytox assay. Type of series: cell-based, mouse. To be noted: 5–200 µM, 48 h, vs vehicle control. How it is done:
The mouse melanoma cell line B16F10 was acquired from American Type Culture Collection (ATCC®; CCL-6475™) (Manassas, VA, USA) and cultured in DMEM, supplemented with 10% fetal bovine serum (FBS) and 1% penicillin–streptomycin, at 37 °C in a humidified 5% CO2 atmosphere. Cell viability assays were performed with minor modifications, as previously reported. Cell viability was evaluated using the EZ-Cytox assay kit (DaeilLab, Seoul, Korea). The compounds were dissolved in DMSO for the in vitro experiments.
The EZ-Cytox assay was used to estimate cell viability. […] Consequently, 20 µM sample concentrations of compounds 1–3 and trolox were used for further experiments.
Figure 4 Effects of compounds 1–3 and trolox on the viability of B16F10 cells. Cells were incubated with different concentrations (5–200 µM) of compound 1 (A), 2 (B), 3 (C), and trolox (D) for 48 h, and cell viability was determined using EZ-Cytox assay. *** p < 0.001 vs. DMSO-treated.

Setting [8] is: cytosolic fraction, 5, 10 and 20 µM.

Entries after “also recorded” stand apart in the source; their conditions may differ.

`O=c1/c(=C/c2ccc(O)cc2O)sc2nc3ccccc3n12` [Compound 3] came in with a melting point of 263.7 to 268.3 °C. Besides, the “Inhibition Type” value in series [1] is “Competitive”. For the same compound, in series [2], the IC50 was no less than 50 µM.

`COc1cc(/C=c2\sc3nc4ccccc4n3c2=O)cc(OC)c1O` [Compound 12]: the melting point was 261.9 to 269.1 °C.

In the case of `COc1ccc(/C=c2\sc3nc4ccccc4n3c2=O)cc1` [Compound 7], the melting point fell in the range of 239.5 to 241.8 °C.

Compound `COc1ccc(/C=c2\sc3nc4ccccc4n3c2=O)cc1O` [Compound 6] returned a melting point of 249.6 to 252.1 °C.

Compound `CCOc1cc(/C=c2\sc3nc4ccccc4n3c2=O)ccc1O` [Compound 5] yielded a melting point of 210.7 °C.

Regarding `O=c1/c(=C/c2ccc(O)c(O)c2)sc2nc3ccccc3n12` [Compound 2], the melting point is no less than 300 °C. Also, the “Inhibition Type” value in series [1] is “Competitive”. Besides, in series [2], the IC50 is 2.36 ± 0.48 µM. Further, the “SIN-1-induced ROS generation in cells” value in series [3] is recorded as “dose-dependently scavenged ROS; also recorded: reduced SIN-1-induced ROS generation in a dose-dependent manner”. Besides, in series [4] (setting [8]), the “expression of tyrosinase, phosphorylated CREB and PKA” value is “decreased their expression on these proteins in a dose-dependent manner”; the “levels of phosphorylated JNK and ERK” value was “decreased the levels of phosphorylated JNK and ERK in a concentration-dependent manner”; the “levels of phosphorylated p38” value is listed as “not affected”. In addition, in series [4] (nuclear fraction, 5, 10 and 20 µM), the MITF levels result is recorded as “significantly suppressed MITF levels”. Further, in series [5], the “mRNA levels of tyrosinase, TRP1, TRP2 and MITF” value was “significantly inhibited the expression”.

In turn, `COc1ccc(/C=c2\sc3nc4ccccc4n3c2=O)cc1OC` [Compound 8] gave a melting point of 236.7 to 236.9 °C.

`COc1cc(/C=c2\sc3nc4ccccc4n3c2=O)cc(OC)c1OC` [Compound 11] gave a melting point of 215.1 °C.

Take `COc1ccc(/C=c2\sc3nc4ccccc4n3c2=O)c(OC)c1` [Compound 9]: the melting point lay in the range of 250.1 to 257.5 °C.

For `O=c1/c(=C/c2ccc(O)cc2)sc2nc3ccccc3n12` [Compound 1], the melting point was no less than 300 °C. Besides, the “Inhibition Type” value in series [1] is reported as “Competitive”. The IC50 in series [2] was no less than 50 µM. Besides, the “effect on melanin contents” value in series [6] is “reduced the melanin content at 20 µM”.

With `O=c1/c(=C/c2ccccc2O)sc2nc3ccccc3n12` [Compound 10], the melting point is 244.2 to 245.2 °C.

Consider `Cc1c(C)c2c(c(C)c1O)CCC(C)(C(=O)O)O2` (stereo not shown) [Trolox, reference compound], for which, in series [7], the cell viability result was “did not significantly affect cell viability at concentrations up to 20 µM”. The compound also returned an IC50 in series [2] of 13.2 ± 0.73 µM.

Compound `O=c1/c(=C/c2ccc(O)c(Br)c2)sc2nc3ccccc3n12` [Compound 13] returned a melting point of 293.7 to 297 °C.

In turn, `COc1cc(/C=c2\sc3nc4ccccc4n3c2=O)ccc1O` [Compound 4] gave a melting point of 262.3 to 264 °C.

Source of the values: paper PMC8301170, “New Benzimidazothiazolone Derivatives as Tyrosinase Inhibitors with Potential Anti-Melanogenesis and Reactive Oxygen Species Scavenging Activities” (Antioxidants, 2021).
